# Assay results reported in patent publication US10245264B2, “Substituted imidazo[1,2-a]pyrazines as soluble guanylate cyclase activators” (Merck Sharp & Dohme Corp., priority 2015, dated 2019).
# How the values were obtained:
# [1] = target: T1, sGC α1/β1 heterodimer stably expressed in CHO-K1 cells (CHO-K1/sGC) (Homo sapiens, UniProt Q02108+Q02153); assay: Cell-based sGC functional assay (CASA assay), cGMP generation by HTRF; details: for Emax: CHO-K1, maximum cGMP production of Compound A set to 100% activation, read-out: % Act. (percent activation relative to Compound A); for EC50: CHO-K1/sGC cells, 1 hr at 37° C., 4P fit, presence or absence of DETA-NO not given, read-out: IP (nM) (inflection point)
# T1 construct: expressed in transfected cells
# T1 sequence (Q02108 1-690): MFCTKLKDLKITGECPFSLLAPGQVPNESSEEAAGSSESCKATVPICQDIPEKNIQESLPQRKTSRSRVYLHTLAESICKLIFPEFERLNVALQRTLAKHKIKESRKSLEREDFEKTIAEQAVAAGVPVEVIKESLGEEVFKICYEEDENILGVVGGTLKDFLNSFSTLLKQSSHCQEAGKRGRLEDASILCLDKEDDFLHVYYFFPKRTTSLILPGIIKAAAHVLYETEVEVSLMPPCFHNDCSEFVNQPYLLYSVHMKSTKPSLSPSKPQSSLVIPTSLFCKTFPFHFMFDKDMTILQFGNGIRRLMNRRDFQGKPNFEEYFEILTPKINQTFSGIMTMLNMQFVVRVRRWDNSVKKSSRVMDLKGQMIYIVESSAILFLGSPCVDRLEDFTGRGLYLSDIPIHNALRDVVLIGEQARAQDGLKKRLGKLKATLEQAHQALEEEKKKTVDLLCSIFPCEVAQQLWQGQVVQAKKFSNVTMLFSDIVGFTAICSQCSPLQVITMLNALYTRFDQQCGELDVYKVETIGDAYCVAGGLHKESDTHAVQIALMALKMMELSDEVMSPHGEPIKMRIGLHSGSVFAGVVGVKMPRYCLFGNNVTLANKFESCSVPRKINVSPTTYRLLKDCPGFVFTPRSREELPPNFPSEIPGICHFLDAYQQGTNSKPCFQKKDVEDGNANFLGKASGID
# T1 sequence (Q02153 1-619): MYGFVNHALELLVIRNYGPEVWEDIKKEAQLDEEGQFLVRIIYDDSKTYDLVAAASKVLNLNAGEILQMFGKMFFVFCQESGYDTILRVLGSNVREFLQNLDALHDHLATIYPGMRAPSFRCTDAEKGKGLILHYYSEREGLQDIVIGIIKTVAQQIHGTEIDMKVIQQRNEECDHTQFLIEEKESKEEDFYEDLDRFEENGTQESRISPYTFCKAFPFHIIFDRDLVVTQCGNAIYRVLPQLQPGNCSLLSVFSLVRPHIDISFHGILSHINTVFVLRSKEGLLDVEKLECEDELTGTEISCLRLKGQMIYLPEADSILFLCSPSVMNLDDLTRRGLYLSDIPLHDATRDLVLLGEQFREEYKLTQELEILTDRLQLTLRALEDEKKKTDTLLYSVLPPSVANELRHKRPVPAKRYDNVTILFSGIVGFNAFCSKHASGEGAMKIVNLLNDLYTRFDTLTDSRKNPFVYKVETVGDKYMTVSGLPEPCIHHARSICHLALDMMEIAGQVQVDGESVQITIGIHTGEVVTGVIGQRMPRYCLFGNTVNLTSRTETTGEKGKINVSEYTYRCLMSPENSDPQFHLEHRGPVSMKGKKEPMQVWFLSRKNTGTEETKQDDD
# Outline: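 CHO-K1/sGC cells (4×10^5/mL) in EBSS with 5 mM MgCl2, 10 mM HEPES, 0.05% BSA and 0.5 mM IBMX, treated 1 hr at 37° C with compounds (2.5% DMSO) with or without 1 μM DETA-NO. cGMP measured by HTRF, expressed as % of a reference heme-dependent activator's maximum; inflection point and fold induction from 4P fit.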
# [2] = test system: systolic blood pressure in spontaneously hypertensive rats; assay: Acute efficacy in spontaneously hypertensive rats (SHR), telemetry blood pressure; format: in vivo, rat
# Description: Acute Efficacy in Spontaneously Hypertensive Rats (SHR)
# Spontaneously hypertensive rats (SHR, male, Charles River) were implanted with DSI TA11 PA-C40 telemetry device (Data Sciences, Inc., St. Paul, Minn.) under isoflurane or ketamine/metomidine anesthesia. The telemetry unit catheter was inserted into the descending aorta via the femoral artery and the telemetry device was implanted subcutaneously in the left flank area. Animals were allowed to recover from surgery for 14 days before the start of any studies. Blood pressure, heart rate, and activity signals from conscious, freely moving rats were recorded continuously for 30 seconds every 10 minutes. On the day prior to administration of compound, a single oral dose of vehicle (10% transcutol/20% Cremophor/70% water) was administered to all animals to establish baseline control data. The blood pressure lowering efficacy of compound (PO) or vehicle was evaluated following a single oral gavage. Data were collected as hourly averages, and changes in blood pressure were calculated by subtracting control baseline data on an hourly basis. Animals were maintained on normal diet with a 12 hour light-dark cycle.
# Maximum peak decreases of systolic blood pressure (SBP) in SHR at a particular P.O. dose (mpk milligrams per kilogram) for the following representative compounds are provided below in Table 6.
# Category A=SBP in SHRs <20 mmHg; Category B=SBP in SHRs 20-40 mmHg;
# Category C=SBP in SHRs >40 mmHg
structure (smiles),measurement,setting,value
"CC1(c2ccc(Cl)cc2)C(=O)Nc2nc(-c3cn4ccnc4c(Oc4cccnc4)n3)nc(N)c21 (stereo not drawn) [Example 30A, 4-amino-5-(4-chlorophenyl)-5-methyl-2-[8-(pyridin-3-yloxy)imidazo[1,2-a]pyrazin-6-yl]-5,7-dihydro-6H-pyrrolo[2,3-d] pyrimidin-6-one]",Emax,[1],168%
same,EC50,[1],171 nM
same,"Maximum peak decrease of systolic blood pressure (SBP), Category",[2]; single oral dose 1.0 mpk P.O.,B (Category B=SBP in SHRs 20-40 mmHg)
"CC(C)COc1nc(-c2nc(N)c3c(n2)NC(=O)C3(C)c2ccc(F)cc2)cn2ccnc12 (stereo not drawn) [Example 51A, 4-amino-5-(4-fluorophenyl)-5-methyl-2-[8-(2-methyl-propoxy)imidazo [1,2-a]pyrazin-6-yl]-5,7-dihydro-6H-pyrrolo[2,3-d] pyrimidin-6-one]",Emax,[1],127%
same,EC50,[1],27 nM
same,"Maximum peak decrease of systolic blood pressure (SBP), Category",[2]; single oral dose 0.3 mpk P.O.,B (Category B=SBP in SHRs 20-40 mmHg)
"CCCSc1nc(-c2nc(N)c3c(n2)NC(=O)C3(C)c2ccc(F)cc2)cn2ccnc12 (stereo not drawn) [Example 62A, 4-amino-5-(4-fluorophenyl)-5-methyl-2-[8-(propylsulfanyl)imidazo[1,2-a]pyrazin-6-yl]-5,7-dihydro-6H-pyrrolo [2,3-d]pyrimidin-6-one]",Emax,[1],99%
same,EC50,[1],142 nM
same,"Maximum peak decrease of systolic blood pressure (SBP), Category",[2]; single oral dose 1.0 mpk P.O.,B (Category B=SBP in SHRs 20-40 mmHg)
"CC1(c2ccc(F)cc2)C(=O)Nc2nc(-c3cn4ccnc4c(OCC(F)(F)C(F)(F)F)n3)nc(N)c21 (stereo not drawn) [Example 2A, 4-amino-5-(4-fluorophenyl)-5-methyl-2-[8-(2,2,3,3,3-pentafluoropropoxy)imidazo[1,2-a]pyrazin-6-yl]-5,7-dihydro-6H-pyrrolo[2,3-d]pyrimidin-6-one]",Emax,[1],127%
same,EC50,[1],317 nM
same,"Maximum peak decrease of systolic blood pressure (SBP), Category",[2]; single oral dose 3.0 mpk P.O.,B (Category B=SBP in SHRs 20-40 mmHg)
"CC1(c2ccc(F)cc2)C(=O)Nc2nc(-c3cn4ccnc4c(Oc4cccc(F)c4)n3)nc(N)c21 (stereo not drawn) [Example 1A, 4-Amino-2-[8-(3-fluorophenoxy)imidazo[1,2-a]pyrazin-6-yl]-5-(4-fluorophenyl)-5-methyl-5,7-dihydro-6H-pyrrolo[2,3-d]pyrimidin-6-one]",Emax,[1],110%
same,EC50,[1],17 nM
same,"Maximum peak decrease of systolic blood pressure (SBP), Category",[2]; single oral dose 0.3 mpk P.O.,B (Category B=SBP in SHRs 20-40 mmHg)
"CCCOc1nc(-c2nc(N)c3c(n2)NC(=O)C3(C)c2ccc(F)cc2)cn2ccnc12 (stereo not drawn) [Example 39A, 4-Amino-5-(4-fluorophenyl)-5-methyl-2-(8-propoxyimidazo[1,2-a]pyrazin-6-yl)-5,7-dihydro-6H-pyrrolo[2,3-d]pyrimidin-6-one]",Emax,[1],109%
same,EC50,[1],148 nM
same,"Maximum peak decrease of systolic blood pressure (SBP), Category",[2]; single oral dose 1.0 mpk P.O.,C (Category C=SBP in SHRs >40 mmHg)
"CCCOc1nc(-c2nc(N)c3c(n2)NC(=O)C3(C)c2ccc(Cl)cc2)cn2ccnc12 (stereo not drawn) [Example 49A, 4-amino-5-(4-chlorophenyl)-5-methyl-2-(8-propoxyimidazo [1,2-a]pyrazin-6-yl)-5,7-dihydro-6H-pyrrolo[2,3-d] pyrimidin-6-one]",Emax,[1],117%
same,EC50,[1],30 nM
same,"Maximum peak decrease of systolic blood pressure (SBP), Category",[2]; single oral dose 0.3 mpk P.O.,B (Category B=SBP in SHRs 20-40 mmHg)
"CC1(c2ccc(F)cc2)C(=O)Nc2nc(-c3cn4ccnc4c(NCC(F)(F)C(F)(F)F)n3)nc(N)c21 (stereo not drawn) [Example 34A, 4-amino-5-(4-fluorophenyl)-5-methyl-2-{8-[(2,2,3,3,3-pentafluoropropyl)amino]imidazo [1,2-a]pyrazin-6-yl}-5,7-dihydro-6H-pyrrolo[2,3-d] pyrimidin-6-one]",Emax,[1],117%
same,EC50,[1],164 nM
same,"Maximum peak decrease of systolic blood pressure (SBP), Category",[2]; single oral dose 3.0 mpk P.O.,A (Category A=SBP in SHRs <20 mmHg)
"COCCNc1nc(-c2nc(N)c3c(n2)NC(=O)C3(C)c2ccc(Cl)cc2)cn2ccnc12 (stereo not drawn) [Example 40A, 4-Amino-5-(4-chlorophenyl)-2-{8-[(2-methoxyethyl)amino]imidazo[1,2-a]pyrazin-6-yl}-5-methyl-5,7-dihydro-6H-pyrrolo[2,3-d]pyrimidin-6-one]",Emax,[1],117%
same,EC50,[1],85 nM
same,"Maximum peak decrease of systolic blood pressure (SBP), Category",[2]; single oral dose 1.0 mpk P.O.,B (Category B=SBP in SHRs 20-40 mmHg)
"CC1(c2ccc(F)cc2)C(=O)Nc2nc(-c3cn4ccnc4c(Oc4ccccc4F)n3)nc(N)c21 (stereo not drawn) [Example 4A, 4-amino-2-[8-(2-fluorophenoxy)imidazo[1,2-a]pyrazin-6-yl]-5-(4-fluorophenyl)-5-methyl-5,7-dihydro-6H-pyrrolo[2,3-d] pyrimidin-6-one]",Emax,[1],100%
same,EC50,[1],62 nM
same,"Maximum peak decrease of systolic blood pressure (SBP), Category",[2]; single oral dose 1.0 mpk P.O.,C (Category C=SBP in SHRs >40 mmHg)
"CC1(c2ccccc2)C(=O)Nc2nc(-c3cn4ccnc4c(Oc4ccccc4)n3)nc(N)c21 (stereo not drawn) [Example 10B, 4-amino-5-methyl-2-(8-phenoxy-imidazo[1,2-a]pyrazin-6-yl)-5-phenyl-5,7-dihydro-6H-pyrrolo[2,3-d] pyrimidin-6-one]",Emax,[1],127%
same,EC50,[1],45 nM
same,"Maximum peak decrease of systolic blood pressure (SBP), Category",[2]; single oral dose 0.3 mpk P.O.,B (Category B=SBP in SHRs 20-40 mmHg)
"CC1(c2ccc(Cl)cc2)C(=O)Nc2nc(-c3cn4ccnc4c(OCCC4CC4)n3)nc(N)c21 (stereo not drawn) [Example 50A, 4-amino-5-(4-chlorophenyl)-2-[8-(2-cyclo-propylethoxy)imidazo[1,2-a]pyrazin-6-yl]-5-methyl-5,7-dihydro-6H-pyrrolo[2,3-d] pyrimidin-6-one]",Emax,[1],106%
same,EC50,[1],12 nM
same,"Maximum peak decrease of systolic blood pressure (SBP), Category",[2]; single oral dose 0.3 mpk P.O.,B (Category B=SBP in SHRs 20-40 mmHg)
"CC1(c2ccc(Cl)cc2)C(=O)Nc2nc(-c3cn4ccnc4c(OCC4CC(F)(F)C4)n3)nc(N)c21 (stereo not drawn) [Example 32A, 4-amino-5-(4-chlorophenyl)-2-{8-[(3,3-difluoro-cyclobutyl)methoxy]imidazo [1,2-a]pyrazin-6-yl}-5-methyl-5,7-dihydro-6H-pyrrolo[2,3-d] pyrimidin-6-one]",Emax,[1],129%
same,EC50,[1],157 nM
same,"Maximum peak decrease of systolic blood pressure (SBP), Category",[2]; single oral dose 1.0 mpk P.O.,B (Category B=SBP in SHRs 20-40 mmHg)
"CC1(c2ccc(Cl)cc2)C(=O)Nc2nc(-c3cn4ccnc4c(NCC(F)(F)C(F)(F)F)n3)nc(N)c21 (stereo not drawn) [Example 61A, 4-amino-5-(4-chlorophenyl)-5-methyl-2-{8-[(2,2,3,3,3-pentafluoro-propyl)amino]imidazo[1,2-a]pyrazin-6-yl}-5,7-dihydro-6H-pyrrolo [2,3-d]pyrimidin-6-one]",Emax,[1],116%
same,EC50,[1],165 nM
same,"Maximum peak decrease of systolic blood pressure (SBP), Category",[2]; single oral dose 3.0 mpk P.O.,B (Category B=SBP in SHRs 20-40 mmHg)
"CC1(c2ccc(Cl)cc2)C(=O)Nc2nc(-c3cn4ccnc4c(OCC(F)(F)C(F)(F)F)n3)nc(N)c21 (stereo not drawn) [Example 47A, 4-amino-5-(4-chlorophenyl)-5-methyl-2-[8-(2,2,3,3,3-pentafluoro-propoxy)imidazo [1,2-a]pyrazin-6-yl]-5,7-dihydro-6H-pyrrolo[2,3-d] pyrimidin-6-one]",Emax,[1],91%
same,EC50,[1],157 nM
same,"Maximum peak decrease of systolic blood pressure (SBP), Category",[2]; single oral dose 1.0 mpk P.O.,B (Category B=SBP in SHRs 20-40 mmHg)
